ChEMBL document CHEMBL4431323, “Synthesis and carbonic anhydrase inhibitory effects of new N-glycosylsulfonamides incorporating the phenol moiety” (Bioorg Med Chem Lett, 2016)

Tests used:
Carbonic anhydrase 9 = Carbonic anhydrase 9 (Homo sapiens, UniProt Q16790); assay: Inhibition of human carbonic anhydrase 9 incubated for 15 mins prior to testing by stopped flow CO2 hydration assay
Carbonic anhydrase 12 = Carbonic anhydrase 12 (Homo sapiens, UniProt O43570); assay: Inhibition of human carbonic anhydrase 12 incubated for 15 mins prior to testing by stopped flow CO2 hydration assay
Chain of Carbonic anhydrase 12 (O43570 whole entry): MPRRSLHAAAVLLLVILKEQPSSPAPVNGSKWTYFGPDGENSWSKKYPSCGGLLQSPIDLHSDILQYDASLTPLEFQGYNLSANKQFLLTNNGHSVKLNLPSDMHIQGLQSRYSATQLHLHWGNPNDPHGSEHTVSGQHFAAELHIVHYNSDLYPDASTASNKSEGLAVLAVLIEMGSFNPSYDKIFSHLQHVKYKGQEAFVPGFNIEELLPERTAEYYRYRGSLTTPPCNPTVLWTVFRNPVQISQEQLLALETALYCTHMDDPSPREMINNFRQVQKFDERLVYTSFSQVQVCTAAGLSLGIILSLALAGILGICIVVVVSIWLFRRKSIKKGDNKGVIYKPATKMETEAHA

Ki (Carbonic anhydrase 9) | Ki (Carbonic anhydrase 12) | SMILES
> 50 µM | > 50 µM | O=S(=O)(N[C@H]1C=C[C@@H](O)[C@@H](CO)O1)c1ccc(O)cc1
> 50 µM | > 50 µM | CC(=O)OC[C@H]1OC(NS(=O)(=O)c2ccc(O)cc2)C=C[C@@H]1OC(C)=O (relative stereo)
> 50 µM | > 50 µM | CC(=O)OC[C@H]1OC(NS(=O)(=O)c2ccc(O)cc2)C(OC(C)=O)=C[C@@H]1OC(C)=O (stereo partly drawn)
> 50 µM | > 50 µM | CC(=O)OC[C@H]1O[C@H](NS(=O)(=O)c2ccc(O)cc2)C=C[C@H]1OC(C)=O
> 50 µM | > 50 µM | O=S(=O)(N[C@@H]1C=C[C@@H](O)[C@@H](CO)O1)c1ccc(O)cc1
0.235 µM | 0.176 µM | NS(=O)(=O)c1ccc(O)cc1
> 50 µM | > 50 µM | O=S(=O)(NC1C=C[C@H](O)[C@@H](CO)O1)c1ccc(O)cc1 (stereo partly drawn)
> 50 µM | > 50 µM | O=C1C[C@H](O)[C@@H](CO)OC1NS(=O)(=O)c1ccc(O)cc1 (stereo partly drawn)
> 50 µM | > 50 µM | CC(=O)OC[C@H]1O[C@@H](NS(=O)(=O)c2ccc(O)cc2)C=C[C@H]1OC(C)=O
